The values below come from US20120177710A1, “TOPICALLY APPLICABLE COMPOSITION FOR USE AS A SKIN BLEACHING AGENT” (DSM IP ASSETS B.V., priority 2005, published 2012).

The test system of this assay is MelanoDerm Mel-300B tissues of the dark skin type. Put plainly: Reduction in melanin content after treatment of MelanoDerm tissues of the dark skin type. Type of assay: cell-based. The conditions noted are these: absorption at 450 nm, control = 100; for Melanin content in % 8 days of treatment, measured after 16 days: 10 mM per tissue topically, then a further eight days in normal medium without test substance; for Melanin content in % after 16 days of treatment: test substance applied topically as aqueous solution, 10 mM per tissue, renewed every 48 hours. On the procedure: Determination of the Reduction in Melanin Content after the Treatment of Melanoderm Tissues of the Dark Skin Type with Test Substances
Test substances: compound 1 and cystamine as standard • Cultivation of the Tissues and Application of the Test Substances
The tissues, treated according to the manufacturer's instructions, were transferred to 6-well plates containing 3 ml of medium per well. The tissues were placed on membrane inserts (Transwell-Clear from Corning). 2 ml of medium were pipetted into the lower compartment and 1 ml of medium into the upper compartment. The test substances were applied topically as an aqueous solution at a rate of 10 mM per tissue. The medium and the test substance were renewed every 48 hours by rinsing the surface of the tissues with 500 μl of warm PBS and applying fresh test substance. After 8 days the test substance was removed from two tissues per treatment type and cultivation was continued for a further eight days with normal medium not containing test substance. The other two tissues per treatment type were incubated further with test substance. The experiment lasted a total of 16 days. • Extraction of the Melanin
The membranes with the pigmented epidermis were cut out of the holders with a scalpel and transferred to screw-capped Eppendorf tubes. 200 μl of 1% SDS in 10 mM Tris, 0.05 mM EDTA pH 6.8 and 20 μl of Proteinase K were pipetted into each tube. The Eppendorf tubes were incubated overnight in a Thermomixer at 45° C. The following morning a further 20 μl of Proteinase K were pipetted into each tube and incubation was continued for 6 hours. The lysate was rendered basic by the addition of 25 μl of 500 mM NaHCO3 and incubated in the Thermomixer for 30 min at 80° C. Fats and proteins were removed from the lysate by treatment with 200 μl of methanol/chloroform (2:1). 3×100 μl of supernatant were pipetted into a 96-well plate and the absorption was measured at 450 nm. • Results

In the case of `N=C(N)NCCSSCCNC(=N)N` [Compound 1], the “Melanin content in % 8 days of treatment, measured after 16 days” value is 23% and the “Melanin content in % after 16 days of treatment” value was found to be 12%.
In the case of `NCCSSCCN` [Cystamine (standard), bis(2-aminoethyl)disulfide], the “Melanin content in % 8 days of treatment, measured after 16 days” value is recorded as 52% and the “Melanin content in % after 16 days of treatment” value turned out to be 30%.
